Key:
Type in all cases: in vivo
[1] = test system: wheat (Triticum aestivum); assay: Test A postemergence; conditions: Triticum aestivum, post-emergence, 240 h, read-out: Plant response rating, Wheat
Outline: (§1)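 In a loam soil and sand blend, planted seeds got a preemergence directed soil spray, and young plants at the one- to two-leaf stage, 2–10 cm high, got a postemergence application; ~10 d greenhouse hold; injury rated visually, 0 = none, 100 = complete control.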

[2] = test system: pigweed (Amaranthus retroflexus); assay: Test A postemergence; conditions: Amaranthus retroflexus, post-emergence, 240 h, read-out: Plant response rating, Pigweed
Outline: as §1

[3] = test system: ragweed (common ragweed, Ambrosia elatior); assay: Test A postemergence; conditions: Ambrosia artemisiifolia, post-emergence, 240 h, read-out: Plant response rating, Ragweed
Outline: as §1

[4] = test system: blackgrass (Alopecurus myosuroides); assay: Test A postemergence; conditions: Alopecurus myosuroides, post-emergence, 240 h, read-out: Plant response rating, Blackgrass
Outline: as §1

[5] = test system: barnyardgrass (Echinochloa crus-galli); assay: Test A postemergence; conditions: Echinochloa crus-galli, post-emergence, 240 h, read-out: Plant response rating, Barnyardgrass
Outline: as §1

[6] = test system: Galium (catchweed bedstraw, Galium aparine); assay: Test A postemergence; conditions: Galium, post-emergence, 240 h, read-out: Plant response rating, Galium
Outline: as §1

corn (Zea mays) = assay: Test A postemergence; conditions: Zea mays, post-emergence, 240 h
Outline: as §1

Kochia (Kochia scoparia) [7] = assay: Test A postemergence; conditions: Bassia scoparia, post-emergence, 240 h, read-out: Plant response rating, Kochia
Outline: as §1

[8] = test system: giant foxtail (Setaria faberii); assay: Test A postemergence; conditions: Setaria faberi, post-emergence, 240 h, read-out: Plant response rating, Foxtail, Giant
Outline: as §1

[9] = test system: ryegrass, Italian (Italian ryegrass, Lolium multiflorum); assay: Test A postemergence; conditions: Lolium multiflorum, post-emergence, 240 h, read-out: Plant response rating, Ryegrass, Italian
Outline: as §1

[10] = test system: pigweed (Amaranthus retroflexus); assay: Test A preemergence; conditions: Amaranthus retroflexus, pre-emergence, 240 h
[11] = test system: ragweed (common ragweed, Ambrosia elatior); assay: Test A preemergence; conditions: Ambrosia artemisiifolia, pre-emergence, 240 h
Outline: as §1

[12] = test system: barnyardgrass (Echinochloa crus-galli); assay: Test A preemergence; conditions: Echinochloa crus-galli, pre-emergence, 240 h
Outline: as §1

Kochia (Kochia scoparia) [13] = assay: Test A preemergence; conditions: Bassia scoparia, pre-emergence, 240 h
Outline: as §1

[14] = test system: giant foxtail (Setaria faberii); assay: Test A preemergence; conditions: Setaria faberi, pre-emergence, 240 h
Outline: as §1

[15] = test system: ryegrass, Italian (Italian ryegrass, Lolium multiflorum); assay: Test A preemergence; conditions: Lolium multiflorum, pre-emergence, 240 h
Outline: as §1

rice (Oryra sativa) = assay: Test B flooded paddy test; conditions: Oryza sativa, 250 g ai/ha, Flood; 0 to 100 scale where 0 is no effect and 100 is complete control; read-out: Rice plant response rating
Outline: (§2)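 Plants at 2-leaf stage flooded to 3 cm above soil, with compounds applied directly to paddy water and that depth maintained. Plants kept in greenhouse 13–15 d. Visual rating versus controls on a 0 (no effect) to 100 (complete control) scale.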

[16] = test system: barnyardgrass (Echinochloa crus-galli); assay: Test B flooded paddy test; conditions: Echinochloa crus-galli, 250 g ai/ha, Flood; 0 to 100 scale where 0 is no effect and 100 is complete control; read-out: Barnyardgrass plant response rating
Outline: as §2

[17] = test system: ducksalad (Heteranthera limosa); assay: Test B flooded paddy test; conditions: Heteranthera limosa, 250 g ai/ha, Flood; 0 to 100 scale where 0 is no effect and 100 is complete control; read-out: Ducksalad plant response rating
Outline: as §2

[18] = test system: sedge, umbrella (small-flower umbrella sedge, Cyperus difformis); assay: Test B flooded paddy test; conditions: Cyperus difformis, 250 g ai/ha, Flood; 0 to 100 scale where 0 is no effect and 100 is complete control; read-out: Sedge, Umbrella plant response rating
Outline: as §2

[19] = 125 g ai/ha, Postemergence, visual injury after approximately 10 d, 0 to 100 scale where 0 is no effect and 100 is complete control
[20] = 500 g ai/ha, postemergence, visual injury, 0 to 100 scale (0 no effect, 100 complete control), approx. 10 d

`COc1ccc([C@H]2CN(C)C(=O)[C@@H]2C(=O)Nc2ccccc2F)cc1F` [Compound 1020] gave a plant injury at 125 g/ha [1, 19] of 0%, a plant injury at 500 g/ha [1, 20] of 30% and a pest or weed control at 125 g/ha [2, 19] of 30%. For the same molecule, the pest or weed control at 500 g/ha [2, 20] was 30%, the pest or weed control at 125 g/ha [3, 19] was 0% and the pest or weed control at 500 g/ha [3, 20] was 0%. It also gave a pest or weed control at 125 g/ha [4, 19] of 0%, a pest or weed control at 500 g/ha [4, 20] of 20% and a pest or weed control at 125 g/ha [5, 19] of 90%. It also gave a pest or weed control at 500 g/ha [5, 20] of 90%, a pest or weed control at 125 g/ha [6, 19] of 40% and a pest or weed control at 500 g/ha [6, 20] of 60%. The Corn plant response rating (crop injury, 0 = no effect, 100 = complete kill) at 125 g/ha (corn (Zea mays); [19]) was 0%, the Corn plant response rating (crop injury, 0 = no effect, 100 = complete kill) at 500 g/ha (corn (Zea mays); [20]) was 30% and the pest or weed control at 125 g/ha (Kochia (Kochia scoparia) [7]; [19]) was 50%. The pest or weed control at 500 g/ha (Kochia (Kochia scoparia) [7]; [20]) was 50%, the pest or weed control at 125 g/ha [8, 19] was 90% and the pest or weed control at 500 g/ha [8, 20] was 90%. For the same molecule, the pest or weed control at 125 g/ha [9, 19] was 30%, the pest or weed control at 500 g/ha [9, 20] was 30% and the pest or weed control at 125 g/ha ([10]; 125 g ai/ha, Preemergence, visual injury rating after approximately 10 d, read-out: Pigweed plant response rating (0 to 100 scale, 0 is no effect, 100 is complete control)) was 30%. It also gave a pest or weed control at 500 g/ha ([10]; 500 g ai/ha, preemergence, visual injury rating about 10 d after treatment, 0 to 100 scale (0 no effect, 100 complete control), read-out: Pigweed plant response rating) of 40%, a pest or weed control at 125 g/ha ([11]; 125 g ai/ha, Preemergence, visual injury rating after approximately 10 d, read-out: Ragweed plant response rating (0 to 100 scale, 0 is no effect, 100 is complete control)) of 0% and a pest or weed control at 500 g/ha ([11]; 500 g ai/ha, preemergence, visual injury rating about 10 d after treatment, 0 to 100 scale (0 no effect, 100 complete control), read-out: Ragweed plant response rating) of 20%. For the same molecule, the pest or weed control at 125 g/ha ([12]; 125 g ai/ha, Preemergence, visual injury rating after approximately 10 d, read-out: Barnyardgrass plant response rating (0 to 100 scale, 0 is no effect, 100 is complete control)) was 90%, the pest or weed control at 500 g/ha ([12]; 500 g ai/ha, preemergence, visual injury rating about 10 d after treatment, 0 to 100 scale (0 no effect, 100 complete control), read-out: Barnyardgrass plant response rating) was 90% and the pest or weed control at 125 g/ha (Kochia (Kochia scoparia) [13]; 125 g ai/ha, Preemergence, visual injury rating after approximately 10 d, read-out: Kochia plant response rating (0 to 100 scale, 0 is no effect, 100 is complete control)) was 30%. For the same molecule, the pest or weed control at 500 g/ha (Kochia (Kochia scoparia) [13]; 500 g ai/ha, preemergence, visual injury rating about 10 d after treatment, 0 to 100 scale (0 no effect, 100 complete control), read-out: Kochia plant response rating) was 20%, the pest or weed control at 125 g/ha ([14]; 125 g ai/ha, Preemergence, visual injury rating after approximately 10 d, read-out: Foxtail, Giant plant response rating (0 to 100 scale, 0 is no effect, 100 is complete control)) was 90% and the pest or weed control at 500 g/ha ([14]; 500 g ai/ha, preemergence, visual injury rating about 10 d after treatment, 0 to 100 scale (0 no effect, 100 complete control), read-out: Foxtail, Giant plant response rating) was 90%. For the same molecule, the pest or weed control at 125 g/ha ([15]; 125 g ai/ha, Preemergence, visual injury rating after approximately 10 d, read-out: Ryegrass, Italian plant response rating (0 to 100 scale, 0 is no effect, 100 is complete control)) was 0%, the pest or weed control at 500 g/ha ([15]; 500 g ai/ha, preemergence, visual injury rating about 10 d after treatment, 0 to 100 scale (0 no effect, 100 complete control), read-out: Ryegrass, Italian plant response rating) was 30% and the pest or weed control at 250 g/ha (rice (Oryra sativa)) was 20%. The pest or weed control at 250 g/ha [16] was 75%, the pest or weed control at 250 g/ha [17] was 90% and the pest or weed control at 250 g/ha [18] was 0%.

Source: patent US12077503B2, “Substituted cyclic amides and their use as herbicides” (FMC CORPORATION, priority 2015, dated 2024)
